Data on ten compounds can be found in ChEMBL document CHEMBL1201862, “PubChem BioAssay data set” (2004).

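Method: 48-hour compound exposure of cells in 96-well plates, five concentrations, linear interpolation of endpoints. At the GI50, growth is halved.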 The source made the active and inactive calls. Rule as the data show it: active = GI50 up to about 1.1 µM and inactive = higher.

Among the test systems are A498; ACHN; CAKI-1; CCRF-CEM; DLD-1; DMS-114; DMS-273; HCC 2998; HOP-18; HOP-92; M14; M19-MEL; NCI-H460; RPMI-8226; RXF 393; SR; TK-10; NCI/ADR-RES.
Common to all, as to test: NCI tumour cell line growth inhibition, 48 h

For the compound `C#CC(C)(C)OCCCCOc1cc(O)c2c(=O)c3ccccc3n(C)c2c1`, the GI50 in the experiment with A498 was 91 µM (inactive); in the experiment on ACHN, > 100 µM (inactive); in the experiment on CAKI-1, > 100 µM (inactive); with CCRF-CEM it was > 100 µM (inactive); with DLD-1 it was > 100 µM (inactive); with DMS-114, 29.3 µM (inactive). Besides, the GI50 in the experiment on DMS-273 is 77.8 µM (inactive); in the experiment on HCC 2998 it was 66.1 µM (inactive); with HOP-18, > 100 µM (inactive); in the experiment with HOP-92, > 100 µM (inactive); in the experiment on M14, 87.9 µM (inactive); in the experiment on M19-MEL it was > 100 µM (inactive). Further, the GI50 in the experiment on NCI-H460 was 57.5 µM (inactive); in the experiment with RPMI-8226, > 100 µM (inactive); with RXF 393 it was > 100 µM (inactive); in the experiment with SR, 89.3 µM (inactive); in the experiment with TK-10 it was > 100 µM (inactive).

For the compound `O=[N+]([O-])c1ccc(N2N=C(c3ccc(NCc4nc5ccccc5[nH]4)cc3)CC2c2ccco2)cc1` (configuration not stated), the GI50 in the experiment with A498 is 28.8 µM (inactive); with ACHN it was 22.8 µM (inactive); with CAKI-1, 48.6 µM (inactive); with CCRF-CEM, 21.6 µM (inactive); in the experiment on DLD-1, 29.4 µM (inactive); in the experiment on DMS-114, 18.1 µM (inactive). For the same compound, the GI50 is 21.2 µM (inactive) in the experiment with DMS-273; 30.9 µM (inactive) with HCC 2998; 50.5 µM (inactive) in the experiment with HOP-18; 32.2 µM (inactive) with HOP-92; 23.5 µM (inactive) in the experiment with M14; 29.3 µM (inactive) with M19-MEL. For the same compound, the GI50 was 24.8 µM (inactive) in the experiment on NCI-H460; 12.4 µM (inactive) in the experiment with RPMI-8226; 42.2 µM (inactive) in the experiment with RXF 393; 8.85 µM (inactive) with SR; 47.2 µM (inactive) in the experiment on TK-10.

`CC(=O)OCc1c(C)c2ccccc2n1C(C)=O`: the GI50 in the experiment on A498 was 38.3 µM (inactive); in the experiment with ACHN, 25.3 µM (inactive); in the experiment with CAKI-1, > 100 µM (inactive); in the experiment on CCRF-CEM, 18.1 µM (inactive); in the experiment with DMS-114, 22.6 µM (inactive); with DMS-273, 25.1 µM (inactive). For the same compound, the GI50 with HCC 2998 is 95.3 µM (inactive); in the experiment with HOP-18 it was 27.7 µM (inactive); with HOP-92, 98.6 µM (inactive); in the experiment with M14, > 100 µM (inactive); with M19-MEL, 53 µM (inactive); in the experiment with RXF 393 it was 33 µM (inactive). For the same compound, the GI50 in the experiment with SR is 36.1 µM (inactive); with TK-10, 30.5 µM (inactive).

`ClCc1ccc2ccc3ccc(CCl)nc3c2n1`: the GI50 in the experiment with A498 is 10.6 µM (inactive); in the experiment on CCRF-CEM, 1.8 µM (inactive); in the experiment on DLD-1, 1.5 µM (inactive); with DMS-114, 1.87 µM (inactive); in the experiment with DMS-273, 2.2 µM (inactive); with HCC 2998 it was 4.11 µM (inactive). For the same compound, the GI50 with HOP-18 was 2.65 µM (inactive); with HOP-92, 2.09 µM (inactive); with M19-MEL, 1.76 µM (inactive); with NCI-H460, 4.62 µM (inactive); in the experiment on NCI/ADR-RES, 1.71 µM (inactive); in the experiment on RPMI-8226, 1.46 µM (inactive). For the same compound, in the experiment on RXF 393, the GI50 is 1.72 µM (inactive).

For the compound `C=C1C(=O)OC2CC1CCC1(C)OC1CCC(C)=CCCC2(C)O` (configuration not stated), the GI50 is 2.13 µM (inactive) in the experiment with A498; 2.4 µM (inactive) with CAKI-1; 1.03 µM (active) with CCRF-CEM; 1.81 µM (inactive) in the experiment with DLD-1; 2.74 µM (inactive) in the experiment on DMS-114; 3.1 µM (inactive) in the experiment on DMS-273. For the same compound, the GI50 in the experiment on HCC 2998 is 7.01 µM (inactive); with HOP-18, 1.47 µM (inactive); in the experiment with HOP-92, 2.26 µM (inactive); in the experiment on M19-MEL, 4.2 µM (inactive); with NCI-H460, 3.06 µM (inactive); with NCI/ADR-RES, 1.8 µM (inactive). Further, the figures for the GI50 in the experiment on RPMI-8226 and in the experiment on RXF 393 were 1.51 µM (inactive) and 1.2 µM (inactive), respectively.

As for `CC1=C2C3OC(=O)C(C)C3CCC2(C)C=C/C1=N\c1ccccc1` (configuration not stated), the GI50 with A498, in the experiment on CCRF-CEM, in the experiment with DLD-1, with DMS-114, in the experiment on DMS-273 and in the experiment on HCC 2998 was > 100 µM (inactive) each time. In addition, the GI50 in the experiment on HOP-18 was > 57.1 µM (inactive); with HOP-92 it was > 100 µM (inactive); in the experiment on M19-MEL, > 100 µM (inactive); in the experiment on NCI-H460 it was > 100 µM (inactive); with NCI/ADR-RES, > 100 µM (inactive); with RXF 393, > 100 µM (inactive).

As to `Cc1cc(C(=O)NCCN(C)C)c2nc3ccccc3cc2c1`, the GI50 in the experiment on A498 is 1.15 µM (inactive); in the experiment on CAKI-1, 0.33 µM (active); in the experiment on CCRF-CEM it was 1.36 µM (inactive); with DLD-1, 1.96 µM (inactive); with DMS-114, 1.04 µM (active); with DMS-273, 2.31 µM (inactive). Further, the GI50 is 3.67 µM (inactive) with HCC 2998; 1.74 µM (inactive) in the experiment with HOP-18; 1.45 µM (inactive) in the experiment on HOP-92; 1.85 µM (inactive) with M19-MEL; 0.372 µM (active) in the experiment with NCI-H460; 1.1 µM (active) in the experiment on NCI/ADR-RES. Moreover, the GI50 in the experiment with RPMI-8226 is 1.55 µM (inactive); in the experiment on RXF 393, 1.63 µM (inactive).

As for `CN1C(=O)CCC1c1ccc2c(c1)oc(=O)n2C` (configuration not stated), the GI50 in the experiment with ACHN, in the experiment with CAKI-1, with CCRF-CEM, with DLD-1, in the experiment on DMS-114 and in the experiment with DMS-273 was > 100 µM (inactive) each time. Moreover, the GI50 in the experiment on HCC 2998, in the experiment on HOP-18, in the experiment with M14, with M19-MEL, in the experiment on NCI-H460 and in the experiment on RPMI-8226 was > 100 µM (inactive) each time. Moreover, the GI50 in the experiment with RXF 393 and with TK-10 was > 100 µM (inactive) each time.

Consider `O=C1C=CC(=O)c2c(Cl)ccc(O)c21`, for which the GI50 in the experiment on A498 was > 87.9 µM (inactive); with CAKI-1 it was 11.1 µM (inactive); in the experiment on DLD-1 it was 13.9 µM (inactive); in the experiment with DMS-114 it was 16.8 µM (inactive); in the experiment on DMS-273 it was 16.2 µM (inactive); in the experiment with HCC 2998, > 100 µM (inactive). The GI50 with HOP-18 is 19.1 µM (inactive); with HOP-92 it was 2.75 µM (inactive); in the experiment with M19-MEL, 16.3 µM (inactive); in the experiment on NCI-H460 it was > 65.9 µM (inactive); in the experiment with NCI/ADR-RES, 18.7 µM (inactive); with RPMI-8226 it was 5.66 µM (inactive). For the same compound, the GI50 with RXF 393 was 16 µM (inactive).

`COc1cc2c(ccc3c4cc(OC)c(OC)cc4c[n+](C)c23)cc1O` [FAGARONINE]: the GI50 with A498 was 3.94 µM (inactive); in the experiment on CAKI-1, 61.7 µM (inactive); with CCRF-CEM, 2.02 µM (inactive); in the experiment on DLD-1 it was 67.5 µM (inactive); with DMS-114, 2.37 µM (inactive); in the experiment with DMS-273, 5.75 µM (inactive). The GI50 is 34.4 µM (inactive) in the experiment on HCC 2998; > 75 µM (inactive) in the experiment on HOP-18; 23.6 µM (inactive) in the experiment on HOP-92; 23.9 µM (inactive) with M19-MEL; 14.7 µM (inactive) in the experiment with NCI-H460; 63.2 µM (inactive) in the experiment on NCI/ADR-RES. Further, the GI50 in the experiment with RPMI-8226 is > 65.3 µM (inactive); in the experiment on RXF 393, 30 µM (inactive).
